From patent publication US9351974B2, “Substituted pteridinones for the treatment of cancer” (OSI Pharmaceuticals, LLC, priority 2011, dated 2016)

Target: T1, His-tagged full-length RSK2 (RPS6KA3) (Homo sapiens, UniProt P51812)
T1 construct: His-tagged full-length RSK2 (RPS6KA3, Invitrogen PV3323); His; purchased Invitrogen PV3323
Assay: RSK2 Omnia Assay for compound IC50 determination
Type: biochemical
Settings: ATP 15 μM, n=2, read-out: Mean RSK2 Biochem IC50
Method in brief: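 Continuous fluorescence assay (ex 360/em 485 nm) of SOX-peptide (Omnia ST Peptide 6, 5 μM) phosphorylation with ATP 15 μM (Km 16.3 μM). Enzyme was […], in pH 7.5 HEPES/MgCl2 buffer with 1% DMSO. IC50 came from 11-point threefold dilutions ([…]) by four-parameter fit of initial slopes, in duplicate; Ki by Cheng-Prusoff assuming competitive inhibition.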

T1 sequence (P51812 whole entry): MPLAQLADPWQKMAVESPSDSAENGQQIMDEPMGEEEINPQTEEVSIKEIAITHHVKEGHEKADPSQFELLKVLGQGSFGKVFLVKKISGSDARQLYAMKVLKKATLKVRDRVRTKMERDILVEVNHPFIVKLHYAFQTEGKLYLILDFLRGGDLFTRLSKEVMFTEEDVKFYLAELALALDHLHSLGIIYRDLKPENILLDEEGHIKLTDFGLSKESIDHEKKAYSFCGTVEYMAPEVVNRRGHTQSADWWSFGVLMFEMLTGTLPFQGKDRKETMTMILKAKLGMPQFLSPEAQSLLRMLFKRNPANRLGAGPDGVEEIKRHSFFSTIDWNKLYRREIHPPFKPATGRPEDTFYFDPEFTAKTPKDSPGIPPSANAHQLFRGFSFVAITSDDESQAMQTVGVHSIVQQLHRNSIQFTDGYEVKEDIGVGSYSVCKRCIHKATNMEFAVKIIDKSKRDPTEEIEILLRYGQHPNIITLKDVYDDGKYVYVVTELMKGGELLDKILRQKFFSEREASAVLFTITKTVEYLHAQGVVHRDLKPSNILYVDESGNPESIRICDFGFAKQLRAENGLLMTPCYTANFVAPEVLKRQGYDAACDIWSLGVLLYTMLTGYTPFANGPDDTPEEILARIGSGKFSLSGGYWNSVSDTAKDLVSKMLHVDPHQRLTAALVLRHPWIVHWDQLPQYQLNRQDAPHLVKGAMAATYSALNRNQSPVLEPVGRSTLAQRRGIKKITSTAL

SMILES: CO[C@H]1CC[C@H](N2c3nc(Nc4cnc5[nH]ncc5c4)ncc3N(c3cccc(C#N)c3)C(=O)[C@H]2C)CC1 [compound 231, 3-[(7R)-8-(trans-4-methoxycyclohexyl)-7-methyl-6-oxo-2-(1H-pyrazolo[3,4-b]pyridin-5-ylamino)-7,8-dihydropteridin-5(6H)-yl]benzonitrile]
- IC50: ≤ 100 nM

SMILES: CO[C@H]1CC[C@H](N2c3nc(Nc4cc(F)c(O)c(F)c4)ncc3N(c3cccc(C#N)c3)C(=O)[C@H]2C)CC1 [compound 232, 3-[(7R)-2-[(3,5-difluoro-4-hydroxyphenyl)amino]-8-(trans-4-methoxycyclohexyl)-7-methyl-6-oxo-7,8-dihydropteridin-5(6H)-yl]benzonitrile]
- IC50: ≤ 100 nM

SMILES: CO[C@H]1CC[C@H](N2c3nc(Nc4cc(F)c5[nH]ncc5c4)ncc3N(c3ccc(N4CCN(C)CC4)nc3)C(=O)[C@H]2C)CC1 [compound 233, (7R)-2-[(7-fluoro-1H-indazol-5-yl)amino]-8-(trans-4-methoxycyclohexyl)-7-methyl-5-[6-(4-methylpiperazin-1-yl)pyridin-3-yl]-7,8-dihydropteridin-6(5H)-one]
- IC50: ≤ 100 nM

SMILES: COc1ccc(N2C(=O)[C@@H](C)N([C@H]3CC[C@H](OC)CC3)c3nc(Nc4cnc5[nH]ncc5c4)ncc32)cc1C#N [compound 234, 2-methoxy-5-[(7R)-8-(trans-4-methoxycyclohexyl)-7-methyl-6-oxo-2-(1H-pyrazolo[3,4-b]pyridin-5-ylamino)-7,8-dihydropteridin-5(6H)-yl]benzonitrile]
- IC50: ≤ 100 nM

SMILES: COc1ccc(N2C(=O)[C@@H](C)N([C@H]3CC[C@H](OC)CC3)c3nc(Nc4ccc5[nH]c(=O)oc5c4)ncc32)cc1C#N [compound 235, 2-methoxy-5-[(7R)-8-(trans-4-methoxycyclohexyl)-7-methyl-6-oxo-2-[(2-oxo-2,3-dihydro-1,3-benzoxazol-6-yl)amino]-7,8-dihydropteridin-5(6H)-yl]benzonitrile]
- IC50: ≤ 100 nM

SMILES: C[C@@H]1C(=O)N(c2cccc(C#N)c2)c2cnc(Nc3cc(F)c4[nH]ncc4c3)nc2N1[C@H]1CC[C@@H](C)CC1 [compound 236, 3-[(7R)-2-[(7-fluoro-1H-indazol-5-yl)amino]-7-methyl-8-(cis-4-methylcyclohexyl)-6-oxo-7,8-dihydropteridin-5(6H)-yl]benzonitrile]
- IC50: ≤ 100 nM

SMILES: C[C@@H]1C(=O)N(c2cccc(C#N)c2)c2cnc(Nc3cc(F)c4[nH]ncc4c3)nc2N1[C@H]1CC[C@H](C)CC1 [compound 237, 3-[(7R)-2-[(7-fluoro-1H-indazol-5-yl)amino]-7-methyl-8-(trans-4-methylcyclohexyl)-6-oxo-7,8-dihydropteridin-5(6H)-yl]benzonitrile]
- IC50: ≤ 100 nM

SMILES: COc1ccc(N2C(=O)[C@@H](C)N([C@H]3CC[C@@H](C)CC3)c3nc(Nc4cc(F)c5[nH]ncc5c4)ncc32)cc1OC [compound 238, (7R)-5-(3,4-dimethoxyphenyl)-2-[(7-fluoro-1H-indazol-5-yl)amino]-7-methyl-8-(cis-4-methylcyclohexyl)-7,8-dihydropteridin-6(5H)-one]
- IC50: ≤ 100 nM

SMILES: COc1ccc(N2C(=O)[C@@H](C)N([C@H]3CC[C@H](C)CC3)c3nc(Nc4cc(F)c5[nH]ncc5c4)ncc32)cc1OC [compound 239, (7R)-5-(3,4-dimethoxyphenyl)-2-[(7-fluoro-1H-indazol-5-yl)amino]-7-methyl-8-(trans-4-methylcyclohexyl)-7,8-dihydropteridin-6(5H)-one]
- IC50: ≤ 100 nM

SMILES: C[C@@H]1C(=O)N(c2cccnc2)c2cnc(Nc3cc(F)c4[nH]ncc4c3)nc2N1[C@H]1CC[C@@H](C)CC1 [compound 240, (7R)-2-[(7-fluoro-1H-indazol-5-yl)amino]-7-methyl-8-(cis-4-methylcyclohexyl)-5-(pyridin-3-yl)-7,8-dihydropteridin-6(5H)-one]
- IC50: ≤ 100 nM

SMILES: C[C@@H]1C(=O)N(c2ccc(N3CCN(C)CC3)nc2)c2cnc(Nc3cc(F)c4[nH]ncc4c3)nc2N1[C@H]1CC[C@H](C)CC1 [compound 242, (7R)-2-[(7-fluoro-1H-indazol-5-yl)amino]-7-methyl-8-(trans-4-methylcyclohexyl)-5-[6-(4-methylpiperazin-1-yl)pyridin-3-yl]-7,8-dihydropteridin-6(5H)-one]
- IC50: ≤ 100 nM

SMILES: C[C@@H]1C(=O)N(c2cccc(C#N)c2)c2cnc(Nc3cc(F)c(O)c(F)c3)nc2N1[C@H]1CC[C@H](C)CC1 [compound 243, 3-[(7R)-2-[(3,5-difluoro-4-hydroxyphenyl)amino]-7-methyl-8-(trans-4-methylcyclohexyl)-6-oxo-7,8-dihydropteridin-5(6H)-yl]benzonitrile]
- IC50: ≤ 100 nM

SMILES: COc1ccc(N2C(=O)[C@@H](C)N([C@H]3CC[C@H](C)CC3)c3nc(Nc4ccc5[nH]c(=O)oc5c4)ncc32)cc1C#N [compound 244, 2-methoxy-5-[(7R)-7-methyl-8-(trans-4-methylcyclohexyl)-6-oxo-2-[(2-oxo-2,3-dihydro-1,3-benzoxazol-6-yl)amino]-7,8-dihydropteridin-5(6H)-yl]benzonitrile]
- IC50: ≤ 100 nM

SMILES: COc1ccc(N2C(=O)[C@@H](C)N([C@H]3CC[C@H](C)CC3)c3nc(Nc4cnc5[nH]ncc5c4)ncc32)cc1C#N [compound 245, 2-Methoxy-5-[(7R)-7-methyl-8-(trans-4-methylcyclohexyl)-6-oxo-2-(1H-pyrazolo[3,4-b]pyridin-5-ylamino)-7,8-dihydropteridin-5(6H)-yl]benzonitrile]
- IC50: ≤ 100 nM

SMILES: CCOc1ccc(N2C(=O)[C@@H](C)N([C@H]3CC[C@H](C)CC3)c3nc(Nc4cnc5[nH]ncc5c4)ncc32)cc1C#N [compound 246, 2-Ethoxy-5-[(7R)-7-methyl-8-(trans-4-methylcyclohexyl)-6-oxo-2-(1H-pyrazolo[3,4-b]pyridin-5-ylamino)-7,8-dihydropteridin-5(6H)-yl]benzonitrile]
- IC50: ≤ 100 nM

SMILES: CCOc1ccc(N2C(=O)[C@@H](C)N([C@H]3CC[C@H](C)CC3)c3nc(Nc4ccc5[nH]c(=O)oc5c4)ncc32)cc1C#N [compound 247, 2-Ethoxy-5-[(7R)-7-methyl-8-(trans-4-methylcyclohexyl)-6-oxo-2-[(2-oxo-2,3-dihydro-1,3-benzoxazol-6-yl)amino]-7,8-dihydropteridin-5(6H)-yl]benzonitrile]
- IC50: ≤ 100 nM

SMILES: CC(C)Oc1ccc(N2C(=O)[C@@H](C)N([C@H]3CC[C@H](C)CC3)c3nc(Nc4cnc5[nH]ncc5c4)ncc32)cc1C#N [compound 248, 5-[(7R)-7-methyl-8-(trans-4-methylcyclohexyl)-6-oxo-2-(1H-pyrazolo[3,4-b]pyridin-5-ylamino)-7,8-dihydropteridin-5(6H)-yl]-2-(propan-2-yloxy)benzonitrile]
- IC50: ≤ 100 nM

SMILES: CC(C)Oc1ccc(N2C(=O)[C@@H](C)N([C@H]3CC[C@H](C)CC3)c3nc(Nc4ccc5[nH]c(=O)oc5c4)ncc32)cc1C#N [compound 249, 5-[(7R)-7-methyl-8-(trans-4-methylcyclohexyl)-6-oxo-2-[(2-oxo-2,3-dihydro-1,3-benzoxazol-6-yl)amino]-7,8-dihydropteridin-5(6H)-yl]-2-(propan-2-yloxy)benzonitrile]
- IC50: ≤ 100 nM

SMILES: C[C@@H]1C(=O)N(c2cccc(C#N)c2)c2cnc(Nc3ccc4c(c3)CS(=O)(=O)N4)nc2N1[C@H]1CC[C@H](C)CC1 [compound 250, 3-[(7R)-2-[(2,2-dioxido-1,3-dihydro-2,1-benzothiazol-5-yl)amino]-7-methyl-8-(trans-4-methylcyclohexyl)-6-oxo-7,8-dihydropteridin-5(6H)-yl]benzonitrile]
- IC50: 100 to 1000 nM

SMILES: C[C@@H]1C(=O)N(c2ccc(N3CCN(C)CC3)c(C#N)c2)c2cnc(Nc3cc(F)c4[nH]ncc4c3)nc2N1[C@H]1CC[C@H](C)CC1 [compound 251, 5-[(7R)-2-[(7-fluoro-1H-indazol-5-yl)amino]-7-methyl-8-(trans-4-methylcyclohexyl)-6-oxo-7,8-dihydropteridin-5(6H)-yl]-2-(4-methylpiperazin-1-yl)benzonitrile]
- IC50: ≤ 100 nM

SMILES: C[C@@H]1C(=O)N(c2ccc(N3CCN(C)CC3)c(C#N)c2)c2cnc(Nc3cnc4[nH]ncc4c3)nc2N1[C@H]1CC[C@H](C)CC1 [compound 252, 5-[(7R)-7-methyl-8-(trans-4-methylcyclohexyl)-6-oxo-2-(1H-pyrazolo[3,4-b]pyridin-5-ylamino)-7,8-dihydropteridin-5(6H)-yl]-2-(4-methylpiperazin-1-yl)benzonitrile]
- IC50: ≤ 100 nM

SMILES: C[C@@H]1C(=O)N(c2cccnc2)c2cnc(Nc3cc(F)c4[nH]ncc4c3)nc2N1[C@H]1CC[C@@H](C(F)(F)F)CC1 [compound 255, (7R)-2-[(7-fluoro-1H-indazol-5-yl)amino]-7-methyl-5-(pyridin-3-yl)-8-[cis-4-(trifluoromethyl)cyclohexyl]-7,8-dihydropteridin-6(5H)-one]
- IC50: ≤ 100 nM

SMILES: C[C@@H]1C(=O)N(c2cccnc2)c2cnc(Nc3cc(F)c4[nH]ncc4c3)nc2N1[C@H]1CC[C@H](C(F)(F)F)CC1 [compound 256]
- IC50: ≤ 100 nM

SMILES: COc1ccc(N2C(=O)[C@@H](C)N([C@H]3CC[C@@H](C(F)(F)F)CC3)c3nc(Nc4cc(F)c5[nH]ncc5c4)ncc32)cc1OC [compound 257, (7R)-5-(3,4-dimethoxyphenyl)-2-[(7-fluoro-1H-indazol-5-yl)amino]-7-methyl-8-[cis-4-(trifluoromethyl)cyclohexyl]-7,8-dihydropteridin-6(5H)-one]
- IC50: ≤ 100 nM

SMILES: COc1ccc(N2C(=O)[C@@H](C)N([C@H]3CC[C@H](C(F)(F)F)CC3)c3nc(Nc4cc(F)c5[nH]ncc5c4)ncc32)cc1OC [compound 258, (7R)-5-(3,4-dimethoxyphenyl)-2-[(7-fluoro-1H-indazol-5-yl)amino]-7-methyl-8-[trans-4-(trifluoromethyl)cyclohexyl]-7,8-dihydropteridin-6(5H)-one]
- IC50: ≤ 100 nM
